Measured values from patent US20260258048A1, “LACTAM-CONTAINING IMIDAZOPYRIDAZINE IL-17 INHIBITOR COMPOUNDS” (Janssen Pharmaceutica NV, priority 2023, published 2026).

What was measured:
[1] = tested on: IL-17A-induced G-CSF production in human normal keratinocyte (NHK); assay: NHK assay: IL-17A-induced G-CSF production in normal human keratinocytes; format: cell-based; conditions: IL-17A 5 ng/mL, 24 h
In short: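 Adult keratinocytes at 3000-4000 cells/well; recombinant human IL-17A pre-incubated 1 h at rt with titrated compound, then added to cells (final 5 ng/mL IL-17A, 0.2% DMSO, 5% FBS) for 24 h at 37 °C. Supernatant G-CSF quantified by HTRF against a standard curve to give IC50; viability checked by CellTiter-Glo versus DMSO.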

[2] = target: IL-17A(FLAG-tagged): IL-17RA(His-tagged) (Homo sapiens, UniProt Q16552, K93Q); assay: IL-17A(FLAG-tagged): IL-17RA(His-tagged) binding disruption Eu-HTRF assay; conditions: for potency increase in the HTRF IC50 when compared to its C-3 epimer: (S)-configuration on C-3 (cis) vs (R)-epimer (trans): Example 51 vs 52, Example 59 vs 60
Sequence of UniProt Q16552 (Q16552 with tags, fused parts or gaps K93Q): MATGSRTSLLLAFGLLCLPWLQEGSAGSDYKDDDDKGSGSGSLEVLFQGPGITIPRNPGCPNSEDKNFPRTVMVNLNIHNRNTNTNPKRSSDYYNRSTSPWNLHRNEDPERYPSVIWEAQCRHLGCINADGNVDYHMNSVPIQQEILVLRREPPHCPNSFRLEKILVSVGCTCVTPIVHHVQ
In short: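 Compound (22-point, 2-fold series) was pre-incubated 1 h at rt with FLAG-IL-17A, added as a 2× solution (1 μM). A 2× mix of C-terminal 10×His IL-17RA, Eu-anti-FLAG donor and D2-anti-His acceptor in PBS/0.01% Triton X-100/200 mM KF was then added for 2 h at rt. The 665/615 nm ratio was fitted to one-site competition for IC50.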

[3] = class of the average IC50 where tested more than once
[4] = Homo sapiens, Keratinocyte, class of the average IC50 where tested more than once
[5] = Homo sapiens, Keratinocyte, value in brackets, Table 4

Structure (SMILES) | IC50 [1, 3] | IC50 [2, 3] | IC50 [1, 4] | IC50 [1, 5] | potency increase in the HTRF IC50 when compared to its C-3 epimer [2] | IC50 ([2]; value in brackets, Table 4)
CC1(Cc2cnn3cc([C@@H](NC(=O)c4nonc4C4CC4)C4CCC(F)(F)CC4)nc3c2)CCCNC1=O (single isomer, unassigned) [Example 28, 4-Cyclopropyl-N—((S)-(4,4-difluorocyclohexyl)(7-(((S*)-3-methyl-2-oxopiperidin-3-yl)methyl)imidazo[1,2-b]pyridazin-2-yl)methyl)-1,2,5-oxadiazole-3-carboxamide] | 400 to 4000 nM | < 400 nM | – | – | – | –
O=C(N[C@H](c1cn2ncc([C@H]3C[C@]34C[C@@H](C(F)(F)F)NC4=O)cc2n1)C1CCC(F)(F)CC1)c1nonc1C1CC1 (single isomer, unassigned) [Example 40] | – | > 4000 nM | > 4000 nM | – | – | –
O=C(N[C@H](c1cn2ncc(CC3C[C@@H](C4CC4)NC3=O)cc2n1)C1CCC(F)(F)CC1)c1nonc1C1CC1 (single isomer, unassigned) [Example 42, 4-Cyclopropyl-N—((S)-(7-(((3S*,5S)-5-cyclopropyl-2-oxopyrrolidin-3-yl)methyl)imidazo[1,2-b]pyridazin-2-yl)(4,4-difluorocyclohexyl)methyl)-1,2,5-oxadiazole-3-carboxamide] | < 400 nM | < 400 nM | – | – | – | –
O=C(N[C@H](c1cn2ncc(CC3C[C@@H](C4CC4)NC3=O)cc2n1)C1CCC(F)(F)CC1)c1nonc1C1CC1 (single isomer, unassigned) [Example 43, 4-Cyclopropyl-N—((S)-(7-(((3R*,5S)-5-cyclopropyl-2-oxopyrrolidin-3-yl)methyl)imidazo[1,2-b]pyridazin-2-yl)(4,4-difluorocyclohexyl)methyl)-1,2,5-oxadiazole-3-carboxamide] | > 4000 nM | 400 to 4000 nM | – | – | – | –
O=C(N[C@H](c1cn2ncc(CC3C(=O)NCC3C(F)(F)F)cc2n1)C1CCC(F)(F)CC1)c1nonc1C1CC1 (single isomer, unassigned) [Example 50] | – | 400 to 4000 nM | > 4000 nM | – | – | –
CC1(Cc2cnn3cc([C@@H](NC(=O)c4nonc4C4CC4)C4CCC(F)(F)CC4)nc3c2)CCNC1=O (single isomer, unassigned) [Example 53, 4-Cyclopropyl-N—((S)-(4,4-difluorocyclohexyl)(7-(((R*)-3-methyl-2-oxopyrrolidin-3-yl)methyl)imidazo[1,2-b]pyridazin-2-yl)methyl)-1,2,5-oxadiazole-3-carboxamide] | 400 to 4000 nM | 400 to 4000 nM | – | – | – | –
CC1(Cc2cnn3cc([C@@H](NC(=O)c4nonc4C4CC4)C4CCC(F)(F)CC4)nc3c2)CCNC1=O (single isomer, unassigned) [Example 54, 4-Cyclopropyl-N—((S)-(4,4-difluorocyclohexyl)(7-(((S*)-3-methyl-2-oxopyrrolidin-3-yl)methyl)imidazo[1,2-b]pyridazin-2-yl)methyl)-1,2,5-oxadiazole-3-carboxamide] | > 4000 nM | 400 to 4000 nM | – | – | – | –
C[C@@]1(C(F)(F)F)CC(Cc2cnn3cc([C@@H](NC(=O)c4nonc4C4CC4)C4CCC(F)(F)CC4)nc3c2)C(=O)N1 (single isomer, unassigned) [Example 56, 4-Cyclopropyl-N—((S)-(4,4-difluorocyclohexyl)(7-(((3R*,5S)-5-methyl-2-oxo-5-(trifluoromethyl)pyrrolidin-3-yl)methyl)imidazo[1,2-b]pyridazin-2-yl)methyl)-1,2,5-oxadiazole-3-carboxamide] | 400 to 4000 nM | 400 to 4000 nM | – | – | – | –
CC(C)(CC[C@H](NC(=O)c1nonc1C1CC1)c1cn2ncc(CC3C[C@@](C)(C(F)(F)F)NC3=O)cc2n1)C(F)(F)F (single isomer, unassigned) [Example 58, 4-Cyclopropyl-N—((S)-5,5,5-trifluoro-4,4-dimethyl-1-(7-(((3R*,5S)-5-methyl-2-oxo-5-(trifluoromethyl)pyrrolidin-3-yl)methyl)imidazo[1,2-b]pyridazin-2-yl)pentyl)-1,2,5-oxadiazole-3-carboxamide] | 400 to 4000 nM | < 400 nM | – | – | – | –
O=C(N[C@H](c1cn2ncc([C@@H](O)[C@@H]3C[C@H](C(F)(F)F)NC3=O)cc2n1)C1CCC(F)(F)CC1)c1nonc1C1CC1 (single isomer, unassigned) [Example 76] | – | > 4000 nM | 400 to 4000 nM | – | – | –
C[C@@H](c1cnn2cc([C@@H](NC(=O)c3nonc3C3CC3)C3CCC(F)(F)CC3)nc2c1)[C@@H]1C[C@@H](C(F)(F)F)NC1=O (single isomer, unassigned) [Example 80, 4-Cyclopropyl-N—((S)-(4,4-difluorocyclohexyl(7-((R*)-1-((3S*,5S)-2-oxo-5-(trifluoromethyl)pyrrolidin-3-yl)ethyl)imidazo[1,2-b]pyridazin-2-yl)methyl)-1,2,5-oxadiazole-3-carboxamide] | – | 400 to 4000 nM | 400 to 4000 nM | – | – | –
C[C@]1(Cc2cnn3cc([C@@H](NC(=O)c4nonc4C4CC4)C4CCC(F)(F)CC4)nc3c2)C[C@@H](C(F)(F)F)NC1=O (single isomer, unassigned) [Example 97] | – | < 400 nM | < 400 nM | – | – | –
Cc1nonc1C(=O)N[C@H](c1cn2ncc(CC3(CC#N)C[C@@H](C(F)(F)F)NC3=O)cc2n1)C1CCC(F)(F)CC1 (single isomer, unassigned) [Example 103, N—((S)-(7-(((3S*,5S)-3-(Cyanomethyl)-2-oxo-5-(trifluoromethyl)pyrrolidin-3-yl)methyl)imidazo[1,2-b]pyridazin-2-yl)(4,4-difluorocyclohexyl)methyl)-4-methyl-1,2,5-oxadiazole-3-carboxamide] | – | < 400 nM | < 400 nM | – | – | –
N#CCC1(Cc2cnn3cc([C@@H](NC(=O)c4nonc4C4CC4)C4CCC(F)(F)CC4)nc3c2)C[C@@H](C(F)(F)F)NC1=O (single isomer, unassigned) [Example 104, N—((S)-(7-(((3S*,5S)-3-(Cyanomethyl)-2-oxo-5-(trifluoromethyl)pyrrolidin-3-yl)methyl)imidazo[1,2-b]pyridazin-2-yl)(4,4-difluorocyclohexyl)methyl)-4-cyclopropyl-1,2,5-oxadiazole-3-carboxamide] | – | < 400 nM | < 400 nM | – | – | –
Cc1nonc1C(=O)N[C@H](c1cn2ncc(CC3(CN(C)C)C[C@@H](C(F)(F)F)NC3=O)cc2n1)C1CCC(F)(F)CC1 (single isomer, unassigned) [Example 105, N—((S)-(4,4-Difluorocyclohexyl)(7-(((3S*,5S)-3-((dimethylamino)methyl)-2-oxo-5-(trifluoromethyl)pyrrolidin-3-yl)methyl)imidazo[1,2-b]pyridazin-2-yl)methyl)-4-methyl-1,2,5-oxadiazole-3-carboxamide] | – | < 400 nM | < 400 nM | – | – | –
O=C(N[C@H](c1cn2ncc(C[C@@]3(O)C[C@@H](C(F)(F)F)NC3=O)cc2n1)C1CCC(F)(F)CC1)c1nonc1C1CC1 [Example 36] | – | < 400 nM | < 400 nM | – | – | –
CC(C)n1nccc1C(=O)N[C@H](c1cn2ncc(C[C@H]3C[C@@H](C(F)(F)F)NC3=O)cc2n1)C1CCC(F)(F)CC1 [Example 51, N—((S)-(4,4-Difluorocyclohexyl)(7-(((3S,5S)-2-oxo-5-(trifluoromethyl)pyrrolidin-3-yl)methyl)imidazo[1,2-b]pyridazin-2-yl)methyl)-1-isopropyl-1H-pyrazole-5-carboxamide] | – | < 400 nM | < 400 nM | 50 nM | more than 100 fold | 150 nM
CC(C)n1nccc1C(=O)N[C@H](c1cn2ncc(C[C@@H]3C[C@@H](C(F)(F)F)NC3=O)cc2n1)C1CCC(F)(F)CC1 [Example 52, N—((S)-(4,4-Difluorocyclohexyl)(7-(((3R,5S)-2-oxo-5-(trifluoromethyl)pyrrolidin-3-yl)methyl)imidazo[1,2-b]pyridazin-2-yl)methyl)-1-isopropyl-1H-pyrazole-5-carboxamide] | – | 400 to 4000 nM | 400 to 4000 nM | 2830 nM | – | 2450 nM
O=C(N[C@H](c1cn2ncc(C[C@H]3C[C@@H](C(F)(F)F)NC3=O)cc2n1)C1CCC(F)(F)CC1)c1nonc1C1CC1 [Example 59, 4-Cyclopropyl-N—[(S)-(4,4-difluorocyclohexyl)-[7-[[(3S,5S)-2-oxo-5-(trifluoromethyl)pyrrolidin-3-yl]methyl]imidazo[1,2-b]pyridazin-2-yl]methyl]-1,2,5-oxadiazole-3-carboxamide] | – | < 400 nM | < 400 nM | 7.8 nM | more than 80 fold | 14 nM
O=C(N[C@H](c1cn2ncc(C[C@@H]3C[C@@H](C(F)(F)F)NC3=O)cc2n1)C1CCC(F)(F)CC1)c1nonc1C1CC1 [Example 60, 4-Cyclopropyl-N—[(S)-(4,4-difluorocyclohexyl)-[7-[[(3R,5S)-2-oxo-5-(trifluoromethyl)pyrrolidin-3-yl]methyl]imidazo[1,2-b]pyridazin-2-yl]methyl]-1,2,5-oxadiazole-3-carboxamide] | – | 400 to 4000 nM | > 4000 nM | > 4000 nM | – | 1140 nM
O=C(N[C@H](c1cn2ncc(C(O)C3CC(C(F)(F)F)NC3=O)cc2n1)C1CCC(F)(F)CC1)c1nonc1C1CC1 (stereo partly drawn) [Example 61, 4-Cyclopropyl-N—[(S)-(4,4-difluorocyclohexyl)-[7-[hydroxy-[2-oxo-5-(trifluoromethyl)pyrrolidin-3-yl]methyl]imidazo[1,2-b]pyridazin-2-yl]methyl]-1,2,5-oxadiazole-3-carboxamide] | – | 400 to 4000 nM | < 400 nM | – | – | –
